# Experimental data published in patent publication US10000471B2, “Pyrazole P38 map kinase inhibitors” (Respivert Limited, priority 2010, dated 2018).
# Columns and labels:
# [1] = tested on: Differentiated U937 cells; experiment: Cell viability MTT assay; type: cell-based, human; details: negative = apparent increase in viability; for MTT Assay (Viability) 4 h d-U937, percentage loss of cell viability: 4 hr in 5% FCS; for MTT Assay (Viability) 24 h d-U937, percentage loss of cell viability: 24 h in 10% FCS
# How it was run: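 Differentiated U937 cells pre-incubated with compound either 4 hr in 5% FCS or 24 h in 10% FCS, then 1 hr MTT. Formazan dissolved in DMSO, absorbance at 550 nm. Percentage viability loss relative to 0.5% DMSO vehicle; apparent increases appear as negative percentages.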
# [2] = tested on: Balb/c mice; experiment: LPS-induced neutrophil accumulation in mice; type: in vivo; details: for Neutrophil numbers in BAL / Neutrophil numbers in BAL (% inhibition): intra tracheal
# Method: LPS-Induced Neutrophil Accumulation in Mice
# Non-fasted Balb/c mice were dosed by the intra tracheal route with either vehicle, or the test substance at the indicated times (within the range 2-8 hr) before stimulation of the inflammatory response by application of an LPS challenge. At T=0, mice were placed into an exposure chamber and exposed to LPS. After a further 8 hr the animals were anesthetized, their tracheas cannulated and BALF extracted by infusing and then withdrawing from their lungs 1.0 mL of PBS via the tracheal catheter. Total and differential white cell counts in the BALF samples were measured using a Neubaur haemocytometer. Cytospin smears of the BALF samples were prepared by centrifugation at 200 rpm for 5 min at RT and stained using a DiffQuik stain system (Dade Behring). Cells were counted using oil immersion microscopy.
# [3] = tested on: TNFα release in d-U937 cells; experiment: LPS-induced TNFα release in d-U937 cells; type: cell-based, human; details: Homo sapiens, dU937, relative to 10 μg/mL BIRB796, read-out: LPS/TNFα REC50 d-U937
# How it was run: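 PMA-differentiated (100 ng/ml, 48–72 hr) U937 macrophage-type cells pre-incubated 2 hr with compound, then stimulated 4 hr with 0.1 μg/mL E. coli O111:B4 LPS; supernatant TNFα and IL-8 measured by sandwich ELISA. TNFα inhibition expressed relative to 10 μg/mL BIRB796, giving REC50; IL-8 inhibition versus vehicle, giving IC50.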
# [4] = tested on: ICAM-1 induction in BEAS2B cells; experiment: Poly I:C-induced ICAM-1 induction in BEAS2B cells; type: cell-based, human; details: Homo sapiens, BEAS-2B, read-out: PolyIC/ICAM1 IC50 BEAS2B
# How it was run: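 Human bronchial epithelial BEAS2B cells were pre-incubated with compound for 2 hr, then transfected with 1 μg/mL poly I:C. After 18 hr, surface ICAM-1 was measured by cell-based ELISA (OD450-655) and normalized to crystal violet cell counts (OD595). IC50 came from inhibition versus vehicle across the concentration-response curve.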
# [5] = tested on: TNFα release in THP-1 cells; experiment: LPS-induced TNFα release in THP-1 cells; type: cell-based, human; details: Homo sapiens
# How it was run: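 Human monocytic THP-1 cells stimulated with 3 μg/mL E. coli LPS for 4 hr; supernatant TNFα measured by sandwich ELISA. Inhibition at each concentration versus vehicle control, IC50 from concentration-response curve.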
# [6] = Table 6, 0.2 mg/mL, 8 h pre-dose
Compound,"MTT Assay (Viability) 4 h d-U937, percentage loss of cell viability [1] [%]","MTT Assay (Viability) 24 h d-U937, percentage loss of cell viability [1] [%]","Neutrophil numbers in BAL ([2]; 0.05 mg/mL, 2 hr pre-dose)","Neutrophil numbers in BAL (% inhibition) ([2]; 0.05 mg/mL, 2 hr pre-dose) [%]","Neutrophil numbers in BAL ([2]; 0.2 mg/mL, 2 hr pre-dose)","Neutrophil numbers in BAL (% inhibition) ([2]; 0.2 mg/mL, 2 hr pre-dose) [%]","Neutrophil numbers in BAL ([2]; 0.2 mg/mL, 8 h pre-dose)","Neutrophil numbers in BAL (% inhibition) ([2]; 0.2 mg/mL, 8 h pre-dose) [%]","Neutrophil numbers in BAL ([2]; 1.0 mg/mL, 2 hr pre-dose)","Neutrophil numbers in BAL (% inhibition) ([2]; 1.0 mg/mL, 2 hr pre-dose) [%]",inhibition of neutrophil accumulation into the BALF ([2]; administered 2 hr prior to LPS challenge),effects of treatment on neutrophil accumulation into the BALF ([2]; dosed 8 hr prior to the endotoxin challenge),EC50 [3] [nM],IC50 [4] [nM],IC50 [5] [nM],"% inhibition of Influx [2, 6] [%]","Neutrophil numbers in BAL 8 h pre-dose [2, 6]",inhibitory effects versus neutrophil influx into the BALF ([2]; dosed 8 hr before the inflammatory stimulus)
"CNC(=O)Nc1cc(Oc2ccc(NC(=O)Nc3cc(C(C)(C)C)nn3-c3ccc(OC)cc3)c(Cl)c2Cl)ccn1 [Example 9, N-Methyl-N′-4-(4-(3-(3-tert-butyl-1-p-anisyl-1H-pyrazol-5-yl)ureido)-2,3-dichlorophen-1-yloxy)pyridin-2-ylurea]",−26.8,65.3,14.98 ± 2.25 × 10^5/mL,11,8.75 ± 1.38 × 10^5/mL,48,13.44 ± 2.03 × 10^5/mL,20,5.80 ± 1.18 × 10^5/mL,66,dose-dependent inhibition,sustained and still detectable,0.2,0.3,1,–,–,–
"COc1ccc(-n2nc(C(C)(C)C)cc2NC(=O)Nc2ccc(Oc3ccnc(NC(=O)N4CCCC4)c3)c(Cl)c2Cl)cc1 [Example 76, N-(4-(4-(3-(3-(tert-butyl)-1-(4-methoxyphenyl)-1H-pyrazol-5-yl)ureido)-2,3-dichlorophenoxy)pyridin-2-yl)pyrrolidine-1-carboxamide]",−25.5,27.2,–,–,–,–,–,–,–,–,–,–,0.9,0.3,0.6,8,12.94 ± 2.41 × 10^5/mL,inhibitory effects
